ChEMBL document CHEMBL1201862, “PubChem BioAssay data set” (2004)
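Tested at 5 concentrations; 48 h exposure; 96-well plates; endpoints linearly interpolated, else capped at highest concentration. GI50: concentration for 50% inhibition of growth.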 Activity calls are given as the source filed them. No stated cut-off is given here; in the data, active = GI50 up to about 1.1 µM and inactive = higher.

Legend:
Test in all cases: NCI tumour cell line growth inhibition, 48 h
EKVX = test system: EKVX
MDA-MB-231 = test system: MDA-MB-231
UACC-257 = test system: UACC-257
OVCAR-3 = test system: OVCAR-3
CCRF-CEM = test system: CCRF-CEM
KM12 = test system: KM12
HOP-62 = test system: HOP-62
SF-268 = test system: SF-268
HT-29 = test system: HT-29
CAKI-1 = test system: CAKI-1
TK-10 = test system: TK-10
M14 = test system: M14
SF-295 = test system: SF-295
Hs-578T = test system: Hs-578T
SW-620 = test system: SW-620
MCF7 = test system: MCF7
RXF 393 = test system: RXF 393
HCC 2998 = test system: HCC 2998
A498 = test system: A498
NCI-H23 = test system: NCI-H23

Measured: GI50

Cn1c(=O)c2c(nc(NCCCCl)n2CC(=O)O)n(C)c1=O
inactive: EKVX > 100 µM | MDA-MB-231 > 100 µM | UACC-257 > 100 µM | OVCAR-3 > 100 µM | CCRF-CEM > 100 µM | KM12 > 100 µM | HOP-62 > 100 µM | SF-268 > 100 µM | HT-29 > 100 µM | CAKI-1 > 100 µM | TK-10 > 100 µM | M14 > 100 µM | SF-295 > 100 µM | Hs-578T > 100 µM | SW-620 > 100 µM | MCF7 > 100 µM | RXF 393 > 100 µM | HCC 2998 > 100 µM | A498 > 100 µM | NCI-H23 > 100 µM

CNC1=Nc2ccccc2C(=O)N2CSCC12 (configuration not stated)
inactive: EKVX > 100 µM | MDA-MB-231 > 100 µM | UACC-257 > 100 µM | OVCAR-3 > 100 µM | CCRF-CEM > 100 µM | KM12 > 100 µM | HOP-62 > 100 µM | SF-268 > 100 µM | HT-29 > 100 µM | CAKI-1 > 100 µM | TK-10 > 100 µM | M14 > 100 µM | SF-295 > 100 µM | Hs-578T > 100 µM | SW-620 > 100 µM | MCF7 > 100 µM | RXF 393 > 100 µM | HCC 2998 > 100 µM | A498 > 100 µM

c1cc(-c2ccc(Oc3ccc(-c4ccncc4)cc3)cc2)ccn1
inactive: EKVX 5.53 µM | MDA-MB-231 18.3 µM | UACC-257 4.91 µM | OVCAR-3 6.14 µM | CCRF-CEM 4.73 µM | KM12 5.22 µM | HOP-62 23.6 µM | SF-268 22.6 µM | HT-29 3.7 µM | CAKI-1 3.22 µM | TK-10 7.18 µM | M14 4.76 µM | SF-295 5.96 µM | Hs-578T 12.8 µM | SW-620 4.37 µM | MCF7 4.26 µM | RXF 393 25.6 µM | HCC 2998 5 µM | A498 6.76 µM | NCI-H23 3.18 µM

COc1cc(C(=O)Oc2c(C(C)=O)sc3c2c(=O)n(-c2ccccc2)c(=S)n3-c2ccccc2)cc(OC)c1OC
inactive: EKVX 18.7 µM | MDA-MB-231 25.9 µM | UACC-257 28.1 µM | OVCAR-3 18.2 µM | CCRF-CEM 15.3 µM | KM12 22.8 µM | HOP-62 24.4 µM | SF-268 24.5 µM | HT-29 11 µM | CAKI-1 33.9 µM | TK-10 38.9 µM | M14 16.9 µM | SF-295 8.3 µM | Hs-578T 19.4 µM | SW-620 25.2 µM | MCF7 19.5 µM | RXF 393 18.9 µM | HCC 2998 24.7 µM | A498 5.78 µM | NCI-H23 20.2 µM

Cn1c2ccccc2c2cc(-c3ccccc3)c3c(c21)C(=O)C=CC3=O
inactive: EKVX 39.7 µM | MDA-MB-231 23.2 µM | UACC-257 21.6 µM | OVCAR-3 16.4 µM | CCRF-CEM 1.59 µM | KM12 20 µM | HOP-62 28.8 µM | SF-268 28.4 µM | HT-29 17.5 µM | CAKI-1 18.3 µM | TK-10 17.1 µM | M14 21.1 µM | SF-295 24 µM | Hs-578T 28.9 µM | SW-620 9.48 µM | MCF7 12.3 µM | RXF 393 15.8 µM | HCC 2998 34.1 µM | A498 22.5 µM | NCI-H23 17.2 µM

C1COCCN1.CN(C)c1ccc(-c2c(C#N)c(N)nc(S)c2C#N)cc1
inactive: EKVX > 100 µM | MDA-MB-231 34.4 µM | UACC-257 82.4 µM | OVCAR-3 > 100 µM | CCRF-CEM 38.5 µM | HOP-62 87.3 µM | SF-268 > 100 µM | HT-29 > 100 µM | CAKI-1 43.9 µM | TK-10 > 100 µM | M14 34 µM | SF-295 61 µM | Hs-578T 4.57 µM | SW-620 63 µM | MCF7 53.1 µM | RXF 393 23.5 µM | HCC 2998 56.1 µM | A498 24.9 µM | NCI-H23 60 µM

COC(=O)CCC(C)[C@H]1CCC2C3CC[C@@H]4CC5(CC[C@]4(C)C3C[C@H](OC(C)=O)[C@@]21C)OOC1(CCCCC1)OO5 (some centres not stated)
inactive: EKVX 1.9 µM | MDA-MB-231 > 100 µM | UACC-257 4.49 µM | OVCAR-3 15.3 µM | CCRF-CEM 5.3 µM | KM12 8.85 µM | HOP-62 8.89 µM | SF-268 19.7 µM | HT-29 14.2 µM | CAKI-1 4.03 µM | TK-10 > 100 µM | M14 3.33 µM | SF-295 9.4 µM | Hs-578T 13.4 µM | MCF7 8.69 µM | RXF 393 > 100 µM | HCC 2998 2.25 µM | A498 > 100 µM | NCI-H23 9.55 µM

CC(=O)C1=C(C)NC(=C(C#N)C#N)C(C#N)=C1
inactive: EKVX > 100 µM | MDA-MB-231 > 100 µM | CCRF-CEM > 100 µM | KM12 > 100 µM | HOP-62 > 100 µM | SF-268 > 100 µM | HT-29 > 100 µM | CAKI-1 > 100 µM | M14 > 100 µM | Hs-578T > 100 µM | SW-620 > 100 µM | MCF7 > 100 µM | RXF 393 > 100 µM | HCC 2998 > 100 µM | A498 > 100 µM | NCI-H23 > 100 µM

O=C(CCc1cccc(O)c1)NCCc1cccc(O)c1
inactive: EKVX > 100 µM | MDA-MB-231 > 100 µM | UACC-257 > 100 µM | OVCAR-3 > 100 µM | CCRF-CEM > 100 µM | KM12 > 100 µM | HOP-62 > 100 µM | SF-268 > 100 µM | HT-29 > 100 µM | CAKI-1 > 100 µM | TK-10 > 100 µM | M14 > 100 µM | SF-295 > 100 µM | Hs-578T > 100 µM | MCF7 > 100 µM | RXF 393 > 100 µM | HCC 2998 > 100 µM | A498 > 100 µM | NCI-H23 > 100 µM

O=c1cc(N2CCNCC2)nc2ccccn12
inactive: EKVX > 100 µM | MDA-MB-231 > 100 µM | UACC-257 > 100 µM | OVCAR-3 > 100 µM | CCRF-CEM > 100 µM | KM12 > 100 µM | HOP-62 > 100 µM | SF-268 > 100 µM | HT-29 > 100 µM | CAKI-1 > 100 µM | TK-10 > 100 µM | M14 > 100 µM | SF-295 > 100 µM | Hs-578T > 100 µM | SW-620 > 100 µM | MCF7 > 100 µM | RXF 393 > 100 µM | HCC 2998 > 100 µM | A498 > 100 µM | NCI-H23 > 100 µM
